Assay results published in ChEMBL document CHEMBL1201862, “PubChem BioAssay data set” (2004).
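1) Cells in 96-well plates. 2) Compound, 48 h, 5 concentrations. 3) Linear interpolation between surrounding doses. 4) Unreached endpoint = highest concentration. GI50 is the concentration that inhibits growth by half.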 Calls of active or inactive are those of the source. Rule as the data show it: active = GI50 up to about 1.1 µM and inactive = higher.

Experiments:
Test in all cases: growth of human tumour cells (NCI), 48 h
CAKI-1 = test system: CAKI-1
TK-10 = test system: TK-10
RXF 393 = test system: RXF 393
SF-268 = test system: SF-268
786-0 = test system: 786-0
NCI/ADR-RES = test system: NCI/ADR-RES
OVCAR-4 = test system: OVCAR-4
K562 = test system: K562
HCT-15 = test system: HCT-15
SNB-19 = test system: SNB-19
SF-539 = test system: SF-539
MOLT-4 = test system: MOLT-4
A549 = test system: A549
OVCAR-5 = test system: OVCAR-5
HT-29 = test system: HT-29
M14 = test system: M14
UACC-257 = test system: UACC-257
LOX IMVI = test system: LOX IMVI
IGROV-1 = test system: IGROV-1
SR = test system: SR

| SMILES | GI50 (CAKI-1) | GI50 (TK-10) | GI50 (RXF 393) | GI50 (SF-268) | GI50 (786-0) | GI50 (NCI/ADR-RES) | GI50 (OVCAR-4) | GI50 (K562) | GI50 (HCT-15) [µM] | GI50 (SNB-19) | GI50 (SF-539) | GI50 (MOLT-4) | GI50 (A549) | GI50 (OVCAR-5) | GI50 (HT-29) | GI50 (M14) | GI50 (UACC-257) | GI50 (LOX IMVI) | GI50 (IGROV-1) | GI50 (SR) |
| --- | --- | --- | --- | --- | --- | --- | --- | --- | --- | --- | --- | --- | --- | --- | --- | --- | --- | --- | --- | --- |
| CC(=O)c1cc2sc3ccccc3c2[nH]1 | > 100 µM (inactive) | > 100 µM (inactive) | > 100 µM (inactive) | > 100 µM (inactive) | > 100 µM (inactive) | > 100 µM (inactive) | > 100 µM (inactive) | > 100 µM (inactive) | > 100 | > 100 µM (inactive) | > 100 µM (inactive) | > 100 µM (inactive) | > 100 µM (inactive) | > 100 µM (inactive) | > 100 µM (inactive) | > 100 µM (inactive) | – | – | – | – |
| COc1cc(/C=C/C(=O)O)ccc1C(=O)OCc1ccccc1 | – | – | > 100 µM (inactive) | > 100 µM (inactive) | – | > 100 µM (inactive) | > 100 µM (inactive) | > 100 µM (inactive) | > 100 | > 100 µM (inactive) | > 100 µM (inactive) | > 100 µM (inactive) | > 100 µM (inactive) | > 100 µM (inactive) | > 100 µM (inactive) | – | > 100 µM (inactive) | > 100 µM (inactive) | > 100 µM (inactive) | – |
| O=C1OC(=O)c2c1cc1cc3c(cc1c2-c1ccc2c(c1)OCO2)OCO3 | > 100 µM (inactive) | > 100 µM (inactive) | > 100 µM (inactive) | > 100 µM (inactive) | 22 µM (inactive) | > 100 µM (inactive) | > 100 µM (inactive) | > 100 µM (inactive) | > 100 | > 100 µM (inactive) | > 100 µM (inactive) | > 100 µM (inactive) | > 100 µM (inactive) | > 100 µM (inactive) | > 100 µM (inactive) | > 100 µM (inactive) | > 100 µM (inactive) | – | > 100 µM (inactive) | – |
| COC(=O)c1cc2c3c(cc(N(C)C)c2[nH]1)N(C(=O)c1cc2cc(OC)c(OC)c(OC)c2[nH]1)CC3CCl (stereo not drawn) | < 0.0025 µM (active) | 0.00968 µM (active) | < 0.0025 µM (active) | 0.00374 µM (active) | < 0.0025 µM (active) | 0.00392 µM (active) | 0.00745 µM (active) | 0.00317 µM (active) | 0.00468 | 0.00775 µM (active) | 0.00653 µM (active) | < 0.0025 µM (active) | 0.00292 µM (active) | 0.00776 µM (active) | 0.25 µM (active) | 0.00294 µM (active) | 0.00476 µM (active) | – | < 0.0025 µM (active) | – |
| Cc1cc(C)c(S(=O)(=O)N(CCCCCCN)OCCCN)c(C)c1 | – | 15.4 µM (inactive) | – | 16.5 µM (inactive) | 16 µM (inactive) | 24.3 µM (inactive) | 20.2 µM (inactive) | 26.4 µM (inactive) | 17.7 | 19.3 µM (inactive) | 18.2 µM (inactive) | 15.3 µM (inactive) | 70 µM (inactive) | 21.7 µM (inactive) | 15.1 µM (inactive) | 20.9 µM (inactive) | 15.8 µM (inactive) | 12.2 µM (inactive) | 13.9 µM (inactive) | – |
| COC1O[C@H]2CCN(C(=O)OCc3ccccc3)[C@H]2[C@H]1OCc1ccccc1 (stereo partly drawn) | 40.3 µM (inactive) | > 41.4 µM (inactive) | 50 µM (inactive) | 50.2 µM (inactive) | > 100 µM (inactive) | – | > 62.4 µM (inactive) | 30.5 µM (inactive) | 36.5 | 89.3 µM (inactive) | > 100 µM (inactive) | 36 µM (inactive) | 4.33 µM (inactive) | > 100 µM (inactive) | 40.9 µM (inactive) | 46.3 µM (inactive) | 43.8 µM (inactive) | 56.6 µM (inactive) | 49.5 µM (inactive) | 30.3 µM (inactive) |
